Values quoted from earlier work, collected in patent US20250241850A1, “BIOADHESIVE NASAL SPRAY COMPOSITION, PREPARATION METHOD AND USE” (Eurofarma Laboratórios S.A., priority 2022, published 2025).
Counter-ions that a name gives are not always drawn.

Details: in vivo

half-life: 3 to 4 h
Compound: CN1C2CCCC1CC(NC(=O)c1nn(C)c3ccccc13)C2 (stereo not shown) [Granisetron hydrochloride]
